≈ marks a conversion by molar mass, not a printed value. Calls of active or inactive are those of the source.
How the values were obtained:
Staphylococcus aureus [1] = experiment: Antimicrobial activity against methicillin-resistant Staphylococcus aureus CBD-635 assessed as zone of inhibition at 5 mg/ml after 24 hrs by disk diffusion assay; type: functional; conditions: for zone of inhibition at 5000 µg/mL: CBD-635, 24 h, read-out: IZ
Staphylococcus aureus [2] = experiment: Antimicrobial activity against methicillin-resistant Staphylococcus aureus CBD-635 assessed as complete inhibition of bacterial growth at 5 times MIC after overnight incubation in presence of tetrahydrofolic acid; type: functional, organism-based
Staphylococcus aureus [3] = experiment: Antimicrobial activity against methicillin-resistant Staphylococcus aureus CBD-635 assessed as complete inhibition of bacterial growth after overnight incubation; type: functional

Structure (SMILES) | zone of inhibition at 5000 µg/mL (Staphylococcus aureus [1]) | inhibition (Staphylococcus aureus [2]) | MIC (Staphylococcus aureus [3]) | inhibition zone (IZ) (Staphylococcus aureus [1])
CC(C)Nc1nc(NC2CCCC2)c2ccccc2n1 | 10 mm | inactive | 37 µM (≈ 10 µg/mL) | 
CC(C)Nc1nc(NC(C)(C)C)c2ccccc2n1 |  | inactive |  | inactive
COc1ccc(CNc2nc(NCc3ccc(Cl)cc3)c3ccc(Cl)cc3n2)cc1 |  | inactive | 51 µM (≈ 22.4 µg/mL) | 
CC(C)Nc1nc(NC(C)C)c2ccccc2n1 |  | inactive |  | inactive
CCCCNc1nc(Nc2ccccc2)nc2ccccc12 | 12 mm | inactive | 34 µM (≈ 9.94 µg/mL) | 
CC(C)Nc1nc(NCC(F)(F)F)c2ccccc2n1 |  | inactive |  | inactive
CC(C)Nc1nc(NCC2CCCO2)c2ccccc2n1 (stereo not drawn) |  | inactive |  | inactive
Clc1ccc(Nc2nc(NCc3ccco3)nc3ccccc23)cc1 | 10 mm | inactive | 29 µM (≈ 10.2 µg/mL) | 
OCCNc1nc(NCc2ccco2)c2ccccc2n1 |  | inactive |  | inactive
CC(C)Nc1nc(NCc2ccco2)c2c(Cl)cccc2n1 | 9 mm | inactive | > 78 µM | 
CC(C)Nc1nc(NCc2ccco2)nc2ccccc12 | 12 mm | inactive | 35 µM (≈ 9.88 µg/mL) | 
CNc1nc(NCCO)nc2ccccc12 |  | inactive |  | inactive
Cc1ccc2c(NCc3ccco3)nc(NC(C)C)nc2c1 |  | inactive |  | inactive
CSCCNc1nc(NC(C)C)nc2ccccc12 | 9 mm | inactive | > 360 µM | 
CC(C)Nc1nc(NCc2ccco2)c2ccccc2n1 | 10 mm | inactive | 180 µM (≈ 50.8 µg/mL) | 
c1ccc(Nc2nc(Nc3ccccc3)c3ccccc3n2)cc1 | 10 mm | inactive | 32 µM (≈ 10 µg/mL) | 
COc1ccc2nc(NC(C)C)nc(NCc3ccco3)c2c1 | 10 mm | inactive | 80 µM (≈ 25 µg/mL) | 
CC(C)(C)Nc1nc(NCc2ccco2)c2ccccc2n1 | 9 mm | inactive | 340 µM (≈ 101 µg/mL) | 
CC(C)Nc1nc(Nc2ccccc2)c2ccccc2n1 | 10 mm | inactive | 36 µM (≈ 10 µg/mL) | 
c1coc(CNc2nc(NC3CCC3)nc3ccccc23)c1 |  | inactive |  | inactive

Structure (SMILES) | zone of inhibition at 5000 µg/mL (Staphylococcus aureus [1]) | inhibition (Staphylococcus aureus [2]) | MIC (Staphylococcus aureus [3]) | inhibition zone (IZ) (Staphylococcus aureus [1])
CNc1nc(NC2CCCC2)nc2ccccc12 |  | inactive |  | inactive
CC(C)Nc1nc(NCc2ccco2)c2ccc(Cl)cc2n1 | 12 mm | inactive | 32 µM (≈ 10.1 µg/mL) | 
c1coc(CNc2nc(NC3CC3)nc3ccccc23)c1 |  | inactive |  | inactive
Cc1ccc2nc(NC(C)C)nc(NCc3ccco3)c2c1 |  | inactive |  | inactive
CNc1nc(NC)c2ccccc2n1 |  | inactive |  | inactive
CC(C)Nc1nc(N(C)C)c2ccccc2n1 |  | inactive |  | inactive
CC(C)Nc1nc(NCc2ccccc2)c2ccccc2n1 | 13 mm | inactive | 34 µM (≈ 9.94 µg/mL) | 
Clc1ccc(CNc2nc(NCc3ccc(Cl)cc3)c3ccc(Cl)cc3n2)cc1 |  | inactive | 68 µM (≈ 30.2 µg/mL) | 
c1coc(CNc2nc(NC3CCCCC3)nc3ccccc23)c1 | 10 mm | inactive | 78 µM (≈ 25.1 µg/mL) | 
COc1ccc2c(NCc3ccco3)nc(NC(C)C)nc2c1 |  | inactive |  | inactive
CCCCNc1nc(Nc2ccccc2)c2ccccc2n1 | 14 mm | inactive | 34 µM (≈ 9.94 µg/mL) | 
COc1ccc(CNc2nc(NCc3ccccc3)c3ccc(Cl)cc3n2)cc1 |  | inactive | 22 µM (≈ 8.91 µg/mL) | 
CCNc1nc(NCc2ccco2)c2ccccc2n1 |  | inactive |  | inactive
CCOC(=O)CNc1nc(NC(C)C)nc2ccccc12 |  | inactive |  | inactive
FC(F)(F)CNc1nc(NCc2ccco2)c2ccccc2n1 |  | inactive |  | inactive
CCNc1nc(NC(C)C)nc2ccccc12 |  | inactive |  | inactive
Cc1ccc(Nc2nc(NCc3ccco3)c3ccccc3n2)cc1 | 9 mm | inactive | 30 µM (≈ 9.91 µg/mL) | 
CNc1nc(NC(C)C)nc2ccccc12 |  | inactive |  | inactive
CNc1nc(NC2CC2)nc2ccccc12 |  | inactive |  | inactive
CC(C)Nc1nc(NCc2ccco2)c2cccc(Cl)c2n1 | 10 mm | inactive | 32 µM (≈ 10.1 µg/mL) | 

Structure (SMILES) | zone of inhibition at 5000 µg/mL (Staphylococcus aureus [1]) | inhibition (Staphylococcus aureus [2]) | MIC (Staphylococcus aureus [3]) | inhibition zone (IZ) (Staphylococcus aureus [1])
CC(C)Nc1nc(NCc2ccccc2)nc2ccccc12 | 13 mm | inactive | 34 µM (≈ 9.94 µg/mL) | 
CC(C)Nc1nc(NCCO)nc2ccccc12 |  | inactive |  | inactive
c1ccc(CNc2nc(Nc3ccccc3)c3ccccc3n2)cc1 | 10 mm | inactive | 31 µM (≈ 10.1 µg/mL) | 
COc1cccc2c(NCc3ccco3)nc(NC(C)C)nc12 |  | inactive |  | inactive
CCNc1nc(NC(C)C)c2ccccc2n1 |  | inactive |  | inactive
CC(C)Nc1nc(NC2CCCC2)nc2ccccc12 | 8 mm | inactive | 190 µM (≈ 51.4 µg/mL) | 
CNc1nc(NCc2ccco2)c2ccccc2n1 |  | inactive |  | inactive
CNc1nc(NC(C)C)c2ccccc2n1 |  | inactive |  | inactive
Cc1cccc2c(NCc3ccco3)nc(NC(C)C)nc12 | 10 mm | inactive | 340 µM (≈ 101 µg/mL) | 
Cc1cccc2nc(NC(C)C)nc(NCc3ccco3)c12 |  | inactive |  | inactive
COc1cccc2nc(NC(C)C)nc(NCc3ccco3)c12 | 9 mm | inactive | > 80 µM | 
c1coc(CNc2nc(NC3CCCC3)nc3ccccc23)c1 | 12 mm | inactive | 160 µM (≈ 49.3 µg/mL) | 
CNc1nc(NCc2ccco2)nc2ccccc12 | 10 mm | inactive | 390 µM (≈ 99.2 µg/mL) | 
c1ccc(CNc2nc(NCc3ccco3)c3ccccc3n2)cc1 | 11 mm | inactive | 30 µM (≈ 9.91 µg/mL) | 
CC(C)Nc1nc(NC2CC2)c2ccccc2n1 |  | inactive |  | inactive
CC(C)Nc1nc(NC2CC2)nc2ccccc12 |  | inactive |  | inactive
CC(C)Nc1nc(NCc2ccco2)c2cc(Cl)ccc2n1 | 11 mm | inactive | 32 µM (≈ 10.1 µg/mL) | 
Clc1ccc(Nc2nc(NCc3ccco3)c3ccccc3n2)cc1 | 10 mm | inactive | 29 µM (≈ 10.2 µg/mL) | 

Reference: ChEMBL document CHEMBL3259619, “Antibacterial activity of a series of N2,N4-disubstituted quinazoline-2,4-diamines” (J Med Chem, 2014)
